One may read the pIC50 as the negative decadic logarithm of the IC50, by convention in mol/L.

pIC50: −log10 of the molar value.

Assay [1] relates to ADR5000 cell line. Nature of the assay: Antiproliferative activity against human CEM/ADR5000 cells assessed as reduction in cell viability incubated for 48 hrs by MTT assay. It counts as functional, cell-based. Conditions: ADR5000, 48 h. (In general: Formazan colour is commonly taken as a measure of viable cells.)
The test system of assay [2] is BEL-7404 tumor cell line. Nature of the assay: Induction of apoptosis in human BEL-7404 tumor cell line in presence of EGCG at 30.5 uM. It counts as functional, cell-based.
In assay [3] the test system is BEL-7404 tumor cell line. Nature of the assay: Antiproliferative activity against human BEL-7404 tumor cell line assessed as inhibition of cell proliferation incubated for 72 hrs by MTT assay. As to conditions: BEL-7404, 72 h. In kind it is functional, cell-based.
Assay [4] deals with ADR5000 cell line. Nature of the assay: Induction of apoptosis in human CEM/ADR5000 cells in presence of EGCG at 20 uM. It counts as functional, cell-based.
Assay [5] has as its system DLD-1. Nature of the assay: Antiproliferative activity against human DLD-1 cells assessed as reduction in cell growth incubated for 24 hrs by MTT assay. In kind it is functional, cell-based. As to conditions: DLD-1, 24 h.
The test system of assay [6] is DLD-1. Nature of the assay: Induction of apoptosis in human DLD-1 cells in presence of EGCG at 50 uM. In kind it is functional, cell-based.
Another assay has as its system MCF7. Nature of the assay: Induction of apoptosis in human MCF7 cells in presence of EGCG at 50 uM.

Take `COc1cccc2c1C(=O)c1c(O)c3c(c(O)c1C2=O)C[C@@](O)(C(=O)CO)C[C@@H]3O[C@H]1C[C@H](N)[C@H](O)[C@H](C)O1` [DOXORUBICIN]: the pIC50 with ADR5000 cell line [1] is 4.05; in the assay with BEL-7404 tumor cell line [2] it was 5.48; in the assay with BEL-7404 tumor cell line [3], 5.79; in the assay on ADR5000 cell line [4], 4.52.
As to `O=c1[nH]cc(F)c(=O)[nH]1` [FLUOROURACIL], the results for the pIC50 in the assay on DLD-1 [5] and with DLD-1 [6] were 3.82 and 4.96, respectively.
`CC/C(=C(\c1ccccc1)c1ccc(OCCN(C)C)cc1)c1ccccc1` [TAMOXIFEN]: in the assay with MCF7, the pIC50 is 5.24.

(Values after ChEMBL document CHEMBL5335772, “EGCG adjuvant chemotherapy: Current status and future perspectives” (Eur J Med Chem, 2023).)
